{
  "source": "ChEMBL document CHEMBL3734692",
  "about": "“Design and synthesis of 2-oxindole based multi-targeted inhibitors of PDK1/Akt signaling pathway for the treatment of glioblastoma multiforme” (Eur J Med Chem, 2015)",
  "key": {"[1]": {"tested_on": "U-118-MG", "assay": "Antiproliferative activity against human U118MG cells assessed as inhibition of cell growth after 72 to 144 hrs by WST1 assay", "format": "functional, cell-based"}, "[2]": {"target": "Glycogen synthase kinase-3 alpha (Homo sapiens, UniProt P49840)", "assay": "Inhibition of GSK3alpha (unknown origin) in presence of 10 uM ATP incubated for 1 hr by Z'Lyte assay"}, "[3]": {"target": "Calcium/calmodulin-dependent protein kinase type II subunit alpha (Homo sapiens) (UniProt Q9UQM7)", "sequence (Q9UQM7 whole entry)": "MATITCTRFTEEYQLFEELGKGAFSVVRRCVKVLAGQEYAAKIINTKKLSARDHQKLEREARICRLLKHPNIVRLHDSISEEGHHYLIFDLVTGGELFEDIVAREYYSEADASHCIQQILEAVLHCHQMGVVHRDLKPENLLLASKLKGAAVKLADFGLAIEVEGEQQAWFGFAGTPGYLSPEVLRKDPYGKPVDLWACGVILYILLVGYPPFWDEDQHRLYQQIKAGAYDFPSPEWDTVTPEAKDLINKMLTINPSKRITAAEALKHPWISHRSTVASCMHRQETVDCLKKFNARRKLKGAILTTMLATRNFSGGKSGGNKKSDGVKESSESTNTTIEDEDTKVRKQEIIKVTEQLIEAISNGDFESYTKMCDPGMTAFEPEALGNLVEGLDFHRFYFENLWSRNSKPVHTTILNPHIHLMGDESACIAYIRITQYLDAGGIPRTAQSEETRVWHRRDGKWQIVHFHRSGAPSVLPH", "assay": "Inhibition of CAMK2alpha (unknown origin) at 1 uM by selectscreen kinase profiling assay in presence of ATP"}, "[4]": {"target": "Serine/threonine-protein kinase MRCK alpha (Homo sapiens) (UniProt Q5VT25)", "sequence (Q5VT25 whole entry)": "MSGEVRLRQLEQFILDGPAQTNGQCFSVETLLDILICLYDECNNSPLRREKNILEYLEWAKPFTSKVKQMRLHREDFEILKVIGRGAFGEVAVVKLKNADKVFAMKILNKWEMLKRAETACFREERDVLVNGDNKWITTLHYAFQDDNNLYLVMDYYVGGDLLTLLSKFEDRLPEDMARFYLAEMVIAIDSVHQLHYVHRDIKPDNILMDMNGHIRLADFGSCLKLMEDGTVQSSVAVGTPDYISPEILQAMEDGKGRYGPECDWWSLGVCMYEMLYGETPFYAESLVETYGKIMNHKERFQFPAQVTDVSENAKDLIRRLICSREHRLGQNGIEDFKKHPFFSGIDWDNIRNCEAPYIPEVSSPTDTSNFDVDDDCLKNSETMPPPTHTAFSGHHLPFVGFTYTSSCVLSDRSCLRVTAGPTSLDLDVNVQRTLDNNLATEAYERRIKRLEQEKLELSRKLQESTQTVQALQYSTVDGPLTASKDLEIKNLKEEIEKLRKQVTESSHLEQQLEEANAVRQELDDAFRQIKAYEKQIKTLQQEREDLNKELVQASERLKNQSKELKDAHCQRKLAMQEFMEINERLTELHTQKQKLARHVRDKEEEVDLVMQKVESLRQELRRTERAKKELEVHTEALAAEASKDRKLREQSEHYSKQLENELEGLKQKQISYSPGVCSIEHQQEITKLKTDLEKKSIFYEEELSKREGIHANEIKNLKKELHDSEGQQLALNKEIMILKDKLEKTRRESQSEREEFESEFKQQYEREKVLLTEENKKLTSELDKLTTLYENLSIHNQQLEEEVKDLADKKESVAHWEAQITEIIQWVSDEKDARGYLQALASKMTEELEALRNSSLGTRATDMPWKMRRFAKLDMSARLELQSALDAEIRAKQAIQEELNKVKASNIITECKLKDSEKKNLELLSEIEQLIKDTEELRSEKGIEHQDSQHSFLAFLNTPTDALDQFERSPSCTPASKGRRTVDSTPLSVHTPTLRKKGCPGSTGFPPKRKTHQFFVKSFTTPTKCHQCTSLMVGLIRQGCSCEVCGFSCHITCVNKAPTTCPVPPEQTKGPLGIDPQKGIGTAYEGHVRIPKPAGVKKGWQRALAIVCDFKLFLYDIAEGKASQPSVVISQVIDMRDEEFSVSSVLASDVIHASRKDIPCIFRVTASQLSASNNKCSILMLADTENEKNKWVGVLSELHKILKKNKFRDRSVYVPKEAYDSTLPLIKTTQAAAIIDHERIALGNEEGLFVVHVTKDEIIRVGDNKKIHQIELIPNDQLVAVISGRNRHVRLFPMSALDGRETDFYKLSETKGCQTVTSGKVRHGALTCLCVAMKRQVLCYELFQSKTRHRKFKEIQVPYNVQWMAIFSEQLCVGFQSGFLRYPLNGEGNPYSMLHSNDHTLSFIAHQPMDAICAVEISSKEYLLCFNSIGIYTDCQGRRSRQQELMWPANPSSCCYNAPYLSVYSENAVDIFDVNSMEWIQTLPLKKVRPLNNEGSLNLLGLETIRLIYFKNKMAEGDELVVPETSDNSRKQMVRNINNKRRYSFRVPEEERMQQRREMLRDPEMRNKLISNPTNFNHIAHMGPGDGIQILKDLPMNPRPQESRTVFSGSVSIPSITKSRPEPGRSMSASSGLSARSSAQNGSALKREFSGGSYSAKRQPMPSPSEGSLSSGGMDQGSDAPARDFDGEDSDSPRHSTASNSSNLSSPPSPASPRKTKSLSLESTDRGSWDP", "assay": "Inhibition of MRCKalpha (unknown origin) at 1 uM by selectscreen kinase profiling assay in presence of ATP"}, "[5]": {"target": "T1, 3-phosphoinositide-dependent protein kinase 1 (Homo sapiens, UniProt O15530)", "T1 sequence (O15530 whole entry)": "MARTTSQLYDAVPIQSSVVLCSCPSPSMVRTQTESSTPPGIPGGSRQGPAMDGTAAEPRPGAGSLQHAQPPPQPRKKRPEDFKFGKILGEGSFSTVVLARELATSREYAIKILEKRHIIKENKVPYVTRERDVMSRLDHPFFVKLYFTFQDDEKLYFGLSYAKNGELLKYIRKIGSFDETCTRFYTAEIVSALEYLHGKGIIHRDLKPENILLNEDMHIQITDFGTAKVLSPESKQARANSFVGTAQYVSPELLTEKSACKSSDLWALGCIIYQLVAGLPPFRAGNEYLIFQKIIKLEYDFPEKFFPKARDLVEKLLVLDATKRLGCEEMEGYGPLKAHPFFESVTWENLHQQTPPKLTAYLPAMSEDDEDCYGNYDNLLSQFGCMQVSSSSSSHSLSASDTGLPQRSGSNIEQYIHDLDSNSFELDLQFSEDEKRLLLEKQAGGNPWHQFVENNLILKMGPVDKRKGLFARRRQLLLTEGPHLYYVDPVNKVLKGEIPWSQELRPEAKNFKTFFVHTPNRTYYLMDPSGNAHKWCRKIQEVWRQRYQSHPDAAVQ", "assay": "Inhibition of PDK1 (unknown origin) incubated for 1 hr by Z'Lyte assay"}, "[6]": {"target": "Mitogen-activated protein kinase 9 (Homo sapiens) (UniProt P45984)", "assay": "Inhibition of JNK2 (unknown origin) at 1 uM by selectscreen kinase profiling assay in presence of ATP"}, "[7]": {"tested_on": "ANGM-CSS", "assay": "Antiproliferative activity against human ANGM-CSS cells assessed as inhibition of cell growth after 72 to 144 hrs by WST1 assay", "format": "functional, cell-based"}, "[8]": {"tested_on": "ANGM-CSS", "assay": "Induction of human GSC differentiation derived from ANGM-CSS cells assessed as down regulation of CD133 mRNA expression at 1 uM after 7 days by RT-PCR analysis", "format": "functional, cell-based"}, "[9]": {"tested_on": "ANGM-CSS", "assay": "Induction of human GSC differentiation derived from ANGM-CSS cells assessed as down regulation of nestin mRNA expression at 1 uM after 7 days by RT-PCR analysis", "format": "functional, cell-based"}, "[10]": {"assay": "Cell cycle arrest in human GSC derived from ANGM-CSS cells assessed as accumulation at G0/G1 phase at 1 uM after 7 days by based fluorescent reagent based cell analysis (reference value: 71.4%)", "format": "functional"}, "[11]": {"assay": "Antiproliferative activity against human ANGM-CSS cells assessed as inhibition of cell growth after 72 hrs by WST1 assay", "format": "functional"}, "[12]": {"assay": "Induction of apoptosis in human GSC derived from ANGM-CSS cells assessed as late apoptotic cells at 1 uM after 7 days by annexin V-FITC/7-AAD dual staining based cell analysis (reference value: 2.51%)", "format": "functional"}, "[13]": {"tested_on": "ANGM-CSS", "assay": "Reduction of neurosphere formation in human GSC derived from ANGM-CSS cells assessed as decrease in number and diameter of newly generated neurospheres at 1 uM after 9 days by microscopic analysis", "format": "functional, cell-based"}, "[14]": {"target": "AMP-activated protein kinase, AMPK (Homo sapiens) (UniProt P54646+O43741+P54619+Q9UGJ0+Q9Y478+Q13131+Q9UGI9)", "assay": "Inhibition of AMPK A1/B1/G1 (unknown origin) at 1 uM by selectscreen kinase profiling assay in presence of ATP", "format": "protein-complex assay"}, "[15]": {"target": "RAC-gamma serine/threonine-protein kinase (Homo sapiens) (UniProt Q9Y243)", "sequence (Q9Y243 whole entry)": "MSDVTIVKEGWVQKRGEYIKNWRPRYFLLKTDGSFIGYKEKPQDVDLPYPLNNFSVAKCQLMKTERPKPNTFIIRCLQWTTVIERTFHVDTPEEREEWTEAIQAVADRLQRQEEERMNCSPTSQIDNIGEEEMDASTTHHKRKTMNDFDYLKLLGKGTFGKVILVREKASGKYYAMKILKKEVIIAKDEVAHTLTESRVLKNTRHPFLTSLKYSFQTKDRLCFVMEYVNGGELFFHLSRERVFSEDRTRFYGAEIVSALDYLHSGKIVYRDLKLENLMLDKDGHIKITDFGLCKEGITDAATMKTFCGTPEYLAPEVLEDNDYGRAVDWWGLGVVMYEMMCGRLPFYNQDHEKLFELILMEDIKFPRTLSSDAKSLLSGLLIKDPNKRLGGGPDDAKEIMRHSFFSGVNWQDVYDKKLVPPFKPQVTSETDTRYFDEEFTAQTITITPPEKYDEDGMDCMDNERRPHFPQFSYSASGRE", "assay": "Inhibition of AKT3 (unknown origin) at 1 uM by selectscreen kinase profiling assay in presence of ATP"}, "[16]": {"target": "Inhibitor of nuclear factor kappa-B kinase subunit alpha (Homo sapiens) (UniProt O15111)", "assay": "Inhibition of IKKalpha (unknown origin) at 1 uM by selectscreen kinase profiling assay in presence of ATP"}, "[17]": {"target": "RAC-alpha serine/threonine-protein kinase (Homo sapiens) (UniProt P31749)", "sequence (P31749 whole entry)": "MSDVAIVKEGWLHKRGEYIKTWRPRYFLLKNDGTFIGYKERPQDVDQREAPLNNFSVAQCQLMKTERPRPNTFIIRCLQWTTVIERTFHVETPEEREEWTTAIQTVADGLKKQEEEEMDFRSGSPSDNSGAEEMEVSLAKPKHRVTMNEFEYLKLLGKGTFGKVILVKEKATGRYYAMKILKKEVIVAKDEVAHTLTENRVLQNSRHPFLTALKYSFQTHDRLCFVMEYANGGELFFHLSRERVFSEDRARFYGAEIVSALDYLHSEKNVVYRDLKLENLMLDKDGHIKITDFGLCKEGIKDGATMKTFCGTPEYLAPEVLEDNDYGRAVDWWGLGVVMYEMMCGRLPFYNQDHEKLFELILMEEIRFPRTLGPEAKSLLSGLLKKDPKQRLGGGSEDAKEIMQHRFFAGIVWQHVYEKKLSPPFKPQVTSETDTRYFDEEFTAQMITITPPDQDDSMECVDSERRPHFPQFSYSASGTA", "assay": "Inhibition of recombinant Akt1 (unknown origin) incubated for 1 hr by Z'Lyte assay"}, "[18]": {"target": "Rho-associated protein kinase 2 (Homo sapiens) (UniProt O75116)", "assay": "Inhibition of ROCK2 (unknown origin) at 1 uM by selectscreen kinase profiling assay in presence of ATP"}, "[19]": {"assay": "Cell cycle arrest in human ANGM-CSS cells assessed as accumulation at G0/G1 phase at 1 uM after 7 days by based fluorescent reagent based cell analysis (reference value: 60.7%)", "format": "functional"}, "[20]": {"tested_on": "ANGM-CSS", "assay": "Antiproliferative activity against human GSC derived from ANGM-CSS cells by MTS assay", "format": "functional, cell-based", "settings": "TDE = time-dependent effect"}, "[21]": {"assay": "Induction of apoptosis in human ANGM-CSS cells assessed as early apoptotic cells at 1 uM after 7 days by annexin V-FITC/7-AAD dual staining based cell analysis (reference value: 2.12%)", "format": "functional"}, "[22]": {"assay": "Induction of apoptosis in human GSC derived from ANGM-CSS cells assessed as early apoptotic cells at 1 uM after 7 days by annexin V-FITC/7-AAD dual staining based cell analysis (reference value: 3.29%)", "format": "functional"}, "[23]": {"tested_on": "RAF proto-oncogene serine/threonine-protein kinase (Homo sapiens), P04049 [Y340D,Y341D]", "sequence (P04049 whole entry Y340D/Y341D)": "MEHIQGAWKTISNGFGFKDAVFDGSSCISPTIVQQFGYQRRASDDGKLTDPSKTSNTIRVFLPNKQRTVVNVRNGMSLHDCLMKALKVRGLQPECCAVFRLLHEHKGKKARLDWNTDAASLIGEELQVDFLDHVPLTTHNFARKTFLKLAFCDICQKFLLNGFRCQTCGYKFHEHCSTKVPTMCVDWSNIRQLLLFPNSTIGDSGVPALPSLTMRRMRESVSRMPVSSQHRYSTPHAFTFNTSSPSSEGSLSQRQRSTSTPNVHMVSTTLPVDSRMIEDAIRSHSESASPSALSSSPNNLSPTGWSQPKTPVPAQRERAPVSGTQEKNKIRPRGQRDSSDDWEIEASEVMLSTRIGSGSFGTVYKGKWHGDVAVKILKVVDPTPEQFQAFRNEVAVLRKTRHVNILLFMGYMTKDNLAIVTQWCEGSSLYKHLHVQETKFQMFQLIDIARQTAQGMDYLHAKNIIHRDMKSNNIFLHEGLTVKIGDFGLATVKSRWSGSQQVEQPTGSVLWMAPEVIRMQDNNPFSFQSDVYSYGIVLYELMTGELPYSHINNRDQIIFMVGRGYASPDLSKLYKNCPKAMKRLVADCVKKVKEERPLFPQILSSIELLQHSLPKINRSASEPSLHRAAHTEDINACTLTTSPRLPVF", "assay": "Inhibition of RAF1 Y340D/Y341D double mutant (unknown origin) at 1 uM by selectscreen kinase profiling assay in presence of ATP"}, "[24]": {"tested_on": "ANGM-CSS", "assay": "Induction of human GSC differentiation derived from ANGM-CSS cells assessed as up regulation of GFAP mRNA expression at 1 uM after 7 days by RT-PCR analysis", "format": "functional, cell-based"}, "[25]": {"tested_on": "ANGM-CSS", "assay": "Induction of human GSC differentiation derived from ANGM-CSS cells assessed as up regulation of MAP2 mRNA expression at 1 uM after 7 days by RT-PCR analysis", "format": "functional, cell-based"}, "[26]": {"target": "Casein kinase I isoform alpha (Homo sapiens) (UniProt P48729)", "sequence (P48729 2-337 limits assumed)": "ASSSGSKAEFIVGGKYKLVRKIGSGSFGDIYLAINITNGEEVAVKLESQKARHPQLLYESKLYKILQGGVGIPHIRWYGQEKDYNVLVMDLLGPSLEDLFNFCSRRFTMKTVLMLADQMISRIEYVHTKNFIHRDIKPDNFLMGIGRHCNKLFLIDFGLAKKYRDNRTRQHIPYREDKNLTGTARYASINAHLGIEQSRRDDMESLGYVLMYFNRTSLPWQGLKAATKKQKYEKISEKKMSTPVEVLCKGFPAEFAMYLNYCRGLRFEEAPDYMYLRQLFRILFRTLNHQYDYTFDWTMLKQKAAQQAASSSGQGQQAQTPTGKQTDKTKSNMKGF", "assay": "Inhibition of CK1alpha1 (unknown origin) at 1 uM by selectscreen kinase profiling assay in presence of ATP"}, "[27]": {"target": "Inhibitor of nuclear factor kappa-B kinase subunit beta (Homo sapiens) (UniProt O14920)", "sequence (O14920 whole entry)": "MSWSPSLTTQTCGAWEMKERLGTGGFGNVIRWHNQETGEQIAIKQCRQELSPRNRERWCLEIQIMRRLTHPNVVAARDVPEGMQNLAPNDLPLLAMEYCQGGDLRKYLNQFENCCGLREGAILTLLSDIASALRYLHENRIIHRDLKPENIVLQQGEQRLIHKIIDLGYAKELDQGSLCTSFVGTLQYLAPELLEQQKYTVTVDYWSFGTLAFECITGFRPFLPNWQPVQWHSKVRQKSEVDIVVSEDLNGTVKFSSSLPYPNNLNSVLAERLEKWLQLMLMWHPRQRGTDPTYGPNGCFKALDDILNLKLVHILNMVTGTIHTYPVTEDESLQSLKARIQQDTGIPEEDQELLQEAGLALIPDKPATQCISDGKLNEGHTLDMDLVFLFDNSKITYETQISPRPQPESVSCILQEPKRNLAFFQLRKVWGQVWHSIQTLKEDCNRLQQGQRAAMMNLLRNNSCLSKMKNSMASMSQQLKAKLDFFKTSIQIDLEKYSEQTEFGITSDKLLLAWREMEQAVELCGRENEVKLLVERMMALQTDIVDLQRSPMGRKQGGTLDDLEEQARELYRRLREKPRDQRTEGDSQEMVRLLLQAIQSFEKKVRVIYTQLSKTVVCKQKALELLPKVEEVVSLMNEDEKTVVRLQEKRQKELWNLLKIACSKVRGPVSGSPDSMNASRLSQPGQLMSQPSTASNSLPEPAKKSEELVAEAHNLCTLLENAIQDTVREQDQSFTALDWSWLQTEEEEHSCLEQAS", "assay": "Inhibition of IKKbeta (unknown origin) at 1 uM by selectscreen kinase profiling assay in presence of ATP"}, "[28]": {"target": "Proto-oncogene tyrosine-protein kinase Src (Homo sapiens) (UniProt P12931)", "assay": "Inhibition of SRC (unknown origin) at 1 uM by selectscreen kinase profiling assay in presence of ATP"}},
  "note": "Active and inactive are the calls of the source. The rule behind the calls is not given here.",
  "data": [
    {"smiles": "COc1cc2c(cc1OC)CN(CC(=O)Nc1ccc3c(c1)/C(=C/c1cnc[nH]1)C(=O)N3)CC2", "values": [
      {"measurement": "growth inhibition (GI)", "setting": "[1]", "result": "Dose-dependent effect"},
      {"measurement": "IC50", "setting": "[2]", "result": 884, "unit": "nM"},
      {"measurement": "inhibition", "setting": "[3]", "result": 1, "unit": "%"},
      {"measurement": "inhibition", "setting": "[4]", "result": -8, "unit": "%"},
      {"measurement": "IC50", "setting": "[5]", "result": 980, "unit": "nM"},
      {"measurement": "inhibition", "setting": "[6]", "result": 5, "unit": "%"},
      {"measurement": "growth inhibition (GI)", "setting": "[7]", "result": "Dose-dependent effect"},
      {"measurement": "Activity", "setting": "[8]", "result": "Active"},
      {"measurement": "Activity", "setting": "[9]", "result": "Active"},
      {"measurement": "Activity", "setting": "[10]", "result": 69, "unit": "%"},
      {"measurement": "GI50", "setting": "[11]", "result": 7730, "unit": "nM"},
      {"measurement": "Activity", "setting": "[12]", "result": 4.93, "unit": "%"},
      {"measurement": "Activity", "setting": "[13]", "result": "Active"},
      {"measurement": "inhibition", "setting": "[14]", "result": 42, "unit": "%"},
      {"measurement": "inhibition", "setting": "[15]", "result": 8, "unit": "%"},
      {"measurement": "inhibition", "setting": "[16]", "result": 26, "unit": "%"},
      {"measurement": "inhibition", "setting": "[17]", "result": "inactive"},
      {"measurement": "inhibition", "setting": "[18]", "result": -5, "unit": "%"},
      {"measurement": "Activity", "setting": "[19]", "result": 72.6, "unit": "%"},
      {"measurement": "inhibition", "setting": "[20]", "result": "tde"},
      {"measurement": "Activity", "setting": "[21]", "result": 6.77, "unit": "%"},
      {"measurement": "Activity", "setting": "[22]", "result": 12.65, "unit": "%"},
      {"measurement": "inhibition", "setting": "[23]", "result": 25, "unit": "%"},
      {"measurement": "Activity", "setting": "[24]", "result": "Active"},
      {"measurement": "Activity", "setting": "[25]", "result": "Active"},
      {"measurement": "inhibition", "setting": "[26]", "result": 4, "unit": "%"},
      {"measurement": "inhibition", "setting": "[27]", "result": 6, "unit": "%"},
      {"measurement": "inhibition", "setting": "[28]", "result": 27, "unit": "%"}
    ]}
  ]
}
